Source: ChEMBL document CHEMBL1821708, “Piperazinyl quinolines as chemosensitizers to increase fluconazole susceptibility of Candida albicans clinical isolates” (Bioorg Med Chem Lett, 2011)
≈ marks a conversion by molar mass, not a printed value.

What was measured:
Candida albicans [1] = experiment: Growth inhibition of Candida albicans isolate CaCi-2 assessed as relative fungal growth in presence of Fluconazole after 48 hrs by Almar blue fluorometry; type: functional, organism-based; conditions: isolate CaCi-2, 48 h
Candida albicans [2] = experiment: Growth inhibition of Candida albicans isolate CaCi-8 assessed as relative fungal growth in presence of Fluconazole after 48 hrs by Almar blue fluorometry; type: functional, organism-based; conditions: isolate CaCi-8, 48 h
[3] = Inhibition of calcineurin signaling pathway in Candida albicans
Candida albicans [4] = experiment: Growth inhibition of Candida albicans isolate CaCi-8 at 1 uM after 48 hrs by Almar blue fluorometry in presence of Fluconazole; type: functional; conditions: isolate CaCi-8, 48 h, read-out: GI
Candida albicans [5] = experiment: Growth inhibition of Candida albicans isolate CaCi-2 at 1 uM after 48 hrs by Almar blue fluorimetry in presence of fluconazole; type: functional; conditions: isolate CaCi-2, 48 h, read-out: GI
[6] = Aqueous solubility of the compound in phosphate buffered saline; type: physicochemical
[7] = Inhibition of HSP90 signaling pathway in Candida albicans
Candida albicans [8] = experiment: Antifungal activity against Candida albicans CaCi-8 clinical isolate; type: functional
Candida albicans [9] = experiment: Antifungal activity against Candida albicans CaCi-2 clinical isolate; type: functional

SMILES	IC50 (Candida albicans [1]) [µM]	IC50 (Candida albicans [2]) [µM]	other results
Cc1ccc(C(=O)N2CCN(c3ccnc4cc(Cl)ccc34)CC2)cc1	2.3	3.1	
O=C(c1ccc(Cl)cc1)N1CCN(c2ccnc3cc(Cl)ccc23)CC1	0.7	1.3	IC50 [3]: > 26 µM; inhibition of growth at 1 µM (Candida albicans [4]): 97%; inhibition of growth at 1 µM (Candida albicans [5]): 97%; solubility ([6]; phosphate buffered saline, read-out: solubility): < 5 µM; IC50 [7]: > 26 µM
O=C(C1CCCCC1)N1CCN(c2ccnc3cc(Cl)ccc23)CC1	1.7	4	
COc1ccc(C(=O)N2CCN(c3ccnc4cc(Cl)ccc34)CC2)cc1	5.3	16.8	
O=C(c1ccc(F)cc1)N1CCN(c2ccnc3cc(Cl)ccc23)CC1	3.6	4.2	
O=C(c1cccc(Cl)c1)N1CCN(c2ccnc3cc(Cl)ccc23)CC1	4.4	7.8	
O=C(c1ccccc1Cl)N1CCN(c2ccnc3cc(Cl)ccc23)CC1	7.3	14.1	
O=C(c1ccc(Cl)c(Cl)c1)N1CCN(c2ccnc3cc(Cl)ccc23)CC1	1	2.1	
O=C(c1ccccc1)N1CCN(c2ccnc3cc(Cl)ccc23)CC1	4.4	6.1	
CCCC(=O)N1CCN(c2ccnc3cc(Cl)ccc23)CC1	6.3	15	
CC(C)C(=O)N1CCN(c2ccnc3cc(Cl)ccc23)CC1	7.2	> 26	
O=C(C1CCCC1)N1CCN(c2ccnc3cc(Cl)ccc23)CC1	3.6	5.3	
O=C(Nc1ccc(Cl)cc1)N1CCN(c2ccnc3cc(Cl)ccc23)CC1	4.2	2.3	
O=C(c1ccc(Cl)nc1)N1CCN(c2ccnc3cc(Cl)ccc23)CC1	6.7	10.9	solubility ([6]; buffer): soluble
O=C(c1ccc(Cl)cn1)N1CCN(c2ccnc3cc(Cl)ccc23)CC1	4.9	4.1	solubility ([6]; buffer): soluble
O=C(c1csc2ccccc12)N1CCN(c2ccnc3cc(Cl)ccc23)CC1	1.9	4	solubility ([6]; buffer): soluble

SMILES	IC50 (Candida albicans [1]) [µM]	IC50 (Candida albicans [2]) [µM]	other results
O=C(c1ccc(Cl)cc1)N1CCN(c2ccnc3ccc(Cl)cc23)CC1	2.4	6.3	
COc1ccc2c(N3CCN(C(=O)c4ccc(Cl)cc4)CC3)ccnc2c1	4.8	13.7	
Cc1cc(N2CCN(C(=O)c3ccc(Cl)cc3)CC2)c2ccccc2n1	7.3	> 26	
O=C(c1ccc(Cl)cc1)N1CCN(c2ccnc3ccccc23)CC1	5.7	14.7	
O=C(c1ccc(Cl)cc1)N1CCN(c2ccccn2)CC1	> 10	24	
O=C(c1ccc(Cl)cc1)N1CCN(c2cccnc2)CC1	7.3	> 26	
O=C(c1ccc(Cl)cc1)N1CCN(c2ccncc2)CC1	7.3	> 26	
Cc1ccc(N2CCN(C(=O)c3ccc(Cl)cc3)CC2)nn1	8.5	20.6	
O=C(c1ccc(Cl)cc1)N1CCN(c2ncccn2)CC1	7.1	18.1	
O=C(c1ccc(Cl)cc1)N1CCN(c2cnccn2)CC1	9	22.2	
O=C(c1ccc(Cl)cc1)N1CCN(c2ncnc3ccccc23)CC1	4.8	11	
O=C(c1ccc(Cl)cc1)N1CCN(c2nc3ccccc3s2)CC1	5.5	10.8	
Cn1ccnc1N1CCN(C(=O)c2ccc(Cl)cc2)CC1	6.2	> 26	
O=C(c1ccc(Cl)cc1)N1CCN(c2nccs2)CC1	6.9	18.9	
O=C(c1ccc(Cl)cc1)N1CCN(c2ccc(Cl)cc2)CC1	8.7	19	
OC(Cn1cncn1)(Cn1cncn1)c1ccc(F)cc1F [FLUCONAZOLE]			MIC (Candida albicans [8]): 26 µM (≈ 7.96 µg/mL); MIC (Candida albicans [9]): 6.5 µM (≈ 1.99 µg/mL)
